How the values were obtained:
MCF-7 cells [1] = test: 3H-thymidine uptake (DNA synthesis / cell proliferation); format: cell-based; settings: mevalonate 20 μM with simvastatin or fluvastatin
Description: Thymidine Uptake Studies:
DNA synthesis was measured by monitoring the uptake of tritiated thymidine, [^3H]TdR (Perkin-Elmer, Boston, Mass.). Cells (5×10^5/ml) were cultured with different concentrations of simvastatin or fluvastatin (0-10 μM) in the presence or absence of mevalonate (20 μM), 1400 W, or sepiapterin. Cells were pulse-chased with [^3H]TdR [0.5 μCi (0.185 MBq)/well during the last 3 h of a 24 h culture, harvested onto glass filters with an automatic cell harvester (Cambridge Technology, Cambridge, Mass.), and counted using the LKB Betaplate scintillation counter (Wallac, Gaithersburg, Md.). All experiments were performed in triplicate and repeated three times.

iNOS in MCF-7 cells = test: iNOS mRNA (RT-PCR) and protein (Western) levels; format: cell-based; settings: mevalonate 20 μM
Description: After treatment with statins, cells were washed with ice-cold DPBS and resuspended in 150 μl of radioimmune precipitation assay buffer (20 mM Tris-HCl, pH 7.4, 2.5 mM EDTA, 1% Triton X-100, 1% sodium deoxycholate, 1% SDS, 100 mM NaCl, 100 mM sodium fluoride) containing 1 mM sodium vanadate, 10 μg/ml aprotinin, 10 μg/ml leupeptin, and 10 μg/ml pepstatin inhibitors. Cells were homogenized by passing the suspension through a 25-gauge needle (20 strokes). The lysate was centrifuged at 750×g for 10 min at 4° C. to pellet out the nuclei. The remaining supernatant was centrifuged for 30 min at 12,000×g. Protein was determined using the Lowry method and 50 μg of the lysate was used for the Western blot analysis. Proteins were resolved using the SDS-polyacrylamide gels and blotted onto nitrocellulose membranes. Membranes were washed with TBS (140 mM NaCl, 50 mM Tris-HCl, pH 7.2) containing 0.1% Tween 20 (TBST) and 5% skim milk to block the non-specific protein binding. Membranes were incubated with 1 μg/ml rabbit anti-iNOS polyclonal antibody (Abeam, Cambridge, Mass.), mouse anti-cyclin D1 antibody, mouse anti-cyclin E antibody (BD Biosciences, San Jose, Calif.) or rabbit anti-p27 antibody (Chemicon International, Temecula, Calif.) in TBST for overnight at 4° C., washed 5 times with TBST, and then incubated with goat anti-rabbit or rabbit anti-mouse IgG-horseradish peroxidase-conjugated secondary antibody (1:5,000) for 1.5 h at room temperature. The band was detected using the ECL method (Amersham Biosciences).
Following the treatments, medium was aspirated and 1 ml of TRIzol reagent (Invitrogen) was added and total RNA was extracted using the manufacturer's protocol. Five μg of RNA was used for the first strand cDNA synthesis using a first strand cDNA synthesis kit (Amersham Biosciences). […]

[2] = system: MCF-7 breast cancer cells; test: MTT reduction cytotoxicity assay in MCF-7 cells; settings: pretreatment before simvastatin or fluvastatin (10 μM), 48 h; mevalonate 20 μM, 1400 W 10 μM
Description: MTT Reduction Cytotoxicity Assay:
MTT is taken up by cells and is reduced to a colored formazon product that can be detected by spectrophotometry (max=562 nm). Reduction of MTT is dependent upon the mitochondrial respiratory function, and thus measures the relative number of viable cells in the culture. After the treatment was completed, MCF-7 cells were washed twice with DPBS and taken in a ml of MEM without FBS and incubated with 5 mg/ml MTT solution for 1 h at 37° C. Medium was removed and cells were solubilized in DMSO. The absorption was measured at 562 nm with reference at 630 nm.
We assessed the effectiveness of simvastatin and fluvastatin to induce cytotoxicity in MCF-7 cells. MCF-7 breast cancer cells were treated with fluvastatin or simvastatin at different concentrations (0.5-20 μM) for 24-48 h. The changes in the number of viable cells were determined using the MTT assay that monitors the intracellular conversion of MTT to formazon spectrophotometrically max=562 nm).

MCF-7 cells [3] = test: Apoptosis by TUNEL assay; format: cell-based; settings: with simvastatin or fluvastatin 5-10 μM, 48 h; 1400 W 10 μM, sepiapterin 50 μM, mevalonate 20 μM
Description: Measurement of Apoptosis by TUNEL Assay:
The terminal deoxynucleotidyl transferase-mediated nick-end labeling (TUNEL) assay was used for microscopic detection of apoptosis (Kotamraju S, et al. J Biol Chem, 277:17179-87, 2002). This assay is based on labeling of 3′ free hydroxyl ends of the fragmented DNA with fluorescein-dUTP catalyzed by terminal deoxynucleotidyl transferase. Procedures were followed according to a commercially available kit (ApoAlert) from Clontech. […] The apoptotic cells were detected by fluorescence microscopy equipped with rhodamine and FITC filters. The quantification of apoptosis was performed using the Metamorph image analysis package.
Under these conditions, NO2^−/NO3^− levels were decreased (FIG. 4B). […] Further verification that iNOS is involved in […] NO was obtained from inhibition of geranylgeranylation and farnesylation. […] In contrast, FTI-277 (farnesylation inhibitor) and sepiapterin had no effect on NO2^−/NO3^− levels (FIG. 4C). […] In the TUNEL assay, cells were treated with simvastatin or fluvastatin (5-10 μM) for 48 h in the presence or absence of 1400 W (10 μM), sepiapterin (50 μM) or mevalonate (20 μM) and stained for TUNEL-positive cells as an index of DNA fragmentation monitored by fluorescence microscopy (original magnification, ×100). Photographs were taken for the overlaid images of propidium iodide-and FITC-stained cells (TUNEL-positive cells). Yellow and red denote apoptotic and nonapoptotic cells, respectively. We observed that the TUNEL positive staining was enhanced in statin-treated MCF-7 cells. […] Pretreatment with 1400 W or mevalonate caused a decrease in the TUNEL positive cells.

CC(O)(CCO)CC(=O)O (stereo not shown) [mevalonate]
effect on statin inhibition of 3H-thymidine uptake (MCF-7 cells [1]): partially reversed | effect on statin-induced iNOS (iNOS in MCF-7 cells): inhibited | effect on statin-induced MCF-7 cell cytotoxicity (MTT assay) [2]: significantly reversed | effect on statin-induced TUNEL-positive cells (proapoptotic effect) (MCF-7 cells [3]): decrease

Reference: patent US20070219208A1, “Methods for Treating Cancer” (priority 2006, published 2007)
